Experimental data from ChEMBL document CHEMBL1149346, “Activity of nitrogen-containing and non-nitrogen-containing bisphosphonates on tumor cell lines” (J Med Chem, 2006).

How the values were obtained:
Type in all cases: functional, cell-based
SF-268 = test: cells; details: Homo sapiens
Description: Antiproliferative activity against human SF-268 cell line by MTT assay

MCF7 = test: Antiproliferative activity against human MCF7 cell line by MTT assay
NCI-H460 = test: Antiproliferative activity against human NCI-H460 cell line by MTT assay
13762 = test: Antiproliferative activity against rat 13762 cell line

Compound	IC50 (SF-268)	IC50 (MCF7)	IC50 (NCI-H460)	IC50 13762
N#Cc1cccc(CC(P(=O)(O)O)P(=O)(O)O)c1	> 1000 µM	> 1000 µM	> 1000 µM	–
O=P(O)(O)C(Cc1ccc(Br)c(Br)c1)P(=O)(O)O	349 µM	533 µM	446 µM	–
O=P(O)(O)C(CNc1ccncc1)P(=O)(O)O	14.4 µM	22.7 µM	12.6 µM	–
CC(C)OC(=O)OCOP(=O)(OCOC(=O)OC(C)C)C(Cc1ccc(F)c(F)c1)P(=O)(OCOC(=O)OC(C)C)OCOC(=O)OC(C)C	28.3 µM	15.2 µM	20.1 µM	–
CCCCc1ccc[n+](CC(O)(P(=O)([O-])O)P(=O)(O)O)c1 (centres undefined)	13.1 µM	21.4 µM	14.8 µM	–
CCc1ccc[n+](CC(O)(P(=O)([O-])O)P(=O)(O)O)c1 (centres undefined)	45.8 µM	50.7 µM	71.7 µM	–
CN(CCCCc1ccccc1)CCC(O)(P(=O)(O)O)P(=O)(O)O	49.2 µM	82.5 µM	22.9 µM	–
O=P(O)(O)C(O)(CCc1cccc(-c2ccccc2-c2ccccc2)c1)P(=O)(O)O	143 µM	146 µM	133 µM	–
O=P(O)(O)C(O)(Cc1cccc(-c2ccccc2-c2ccccc2)c1)P(=O)(O)O	58 µM	92.7 µM	86.1 µM	–
Cc1ccc[n+](CC(P(=O)([O-])O)P(=O)(O)O)c1 (centres undefined)	44.6 µM	38.1 µM	62 µM	–
O=P([O-])(O)C(O)(C[n+]1cccc(Cl)c1)P(=O)(O)O (centres undefined)	58.3 µM	121 µM	58.1 µM	–
O=P([O-])(O)C(O)(C[n+]1cccc(-c2ccc(F)cc2)c1)P(=O)(O)O (centres undefined)	6.5 µM	17.3 µM	5.6 µM	–
O=P(O)(O)C(O)(Cn1ccnc1)P(=O)(O)O [ZOLEDRONIC ACID]	14.3 µM	27.7 µM	11.7 µM	–
COc1cc[n+](CC(O)(P(=O)([O-])O)P(=O)(O)O)cc1 (centres undefined)	436 µM	409 µM	644 µM	–
O=P([O-])(O)C(O)(C[n+]1ccc2ccccc2c1)P(=O)(O)O (centres undefined)	260 µM	288 µM	297 µM	–
CN(C)c1cc[n+](CC(O)(P(=O)([O-])O)P(=O)(O)O)cc1 (centres undefined)	> 10000 µM	> 10000 µM	> 10000 µM	–
O=P([O-])(O)C(O)(C[n+]1ccccc1)P(=O)(O)O (centres undefined)	46.8 µM	79.4 µM	69.9 µM	–
O=P(O)(O)C(O)(Cc1cccnc1)P(=O)(O)O [RISEDRONIC ACID]	23.3 µM	35.7 µM	43.7 µM	> 40 µM
O=P([O-])(O)C(O)(C[n+]1cccc(-c2ccccc2)c1)P(=O)(O)O (centres undefined)	27.2 µM	44.2 µM	52.2 µM	–
CC(C)OC(=O)OCOP(=O)(OCOC(=O)OC(C)C)C(Cc1cccc(C#N)c1)P(=O)(OCOC(=O)OC(C)C)OCOC(=O)OC(C)C	7.77 µM	58.6 µM	22.6 µM	–
CC(C)(C)C(=O)OCOP(=O)(OCOC(=O)C(C)(C)C)C(Cc1ccc(Cl)c(Cl)c1)P(=O)(OCOC(=O)C(C)(C)C)OCOC(=O)C(C)(C)C	1.43 µM	0.34 µM	2.7 µM	–
O=P([O-])(O)C(C[n+]1ccc(-c2cccc(-c3ccccc3)c2)cc1)P(=O)(O)O (centres undefined)	> 10000 µM	> 10000 µM	> 10000 µM	–

Compound	IC50 (SF-268)	IC50 (MCF7)	IC50 (NCI-H460)	IC50 13762
O=P([O-])(O)C(O)(C[n+]1cccc(-c2ccc(C(F)(F)F)cc2)c1)P(=O)(O)O (centres undefined)	10.4 µM	14.5 µM	23.2 µM	–
O=P([O-])(O)C(O)(C[n+]1cccc(F)c1)P(=O)(O)O (centres undefined)	49.3 µM	58.1 µM	65.8 µM	–
O=P(O)(O)C(CNc1ccccn1)P(=O)(O)O	147 µM	223 µM	63.7 µM	–
Cc1ccc2ccc[n+](CC(O)(P(=O)([O-])O)P(=O)(O)O)c2c1 (centres undefined)	257 µM	289 µM	270 µM	–
O=P([O-])(O)C(C[n+]1ccc(C(F)(F)F)cc1)P(=O)(O)O (centres undefined)	> 10000 µM	> 10000 µM	> 10000 µM	–
O=P([O-])(O)C(O)(C[n+]1ccc(-c2ccccc2)cc1)P(=O)(O)O (centres undefined)	290 µM	304 µM	312 µM	–
O=P([O-])(O)C(O)(C[n+]1cccc(-c2ccc(O)cc2)c1)P(=O)(O)O (centres undefined)	30.7 µM	37.2 µM	74.4 µM	–
Cc1ccc[n+](CC(O)(P(=O)([O-])O)P(=O)(O)O)c1 (centres undefined)	52.6 µM	98.1 µM	66.8 µM	–
CCCCc1ccc[n+](CC(P(=O)([O-])O)P(=O)(O)O)c1 (centres undefined)	24.1 µM	26.5 µM	33 µM	–
O=P(O)(O)C(Nc1ncccc1OCc1ccccc1)P(=O)(O)O	399 µM	339 µM	3210 µM	–
O=P([O-])(O)C(O)(C[n+]1ccc(-c2ccncc2)cc1)P(=O)(O)O (centres undefined)	> 10000 µM	> 10000 µM	> 10000 µM	–
O=P([O-])(O)C(C[n+]1ccc(Cc2ccccc2)cc1)P(=O)(O)O (centres undefined)	133 µM	125 µM	141 µM	–
O=P([O-])(O)C(O)(C[n+]1cccc(Br)c1)P(=O)(O)O (centres undefined)	55.7 µM	33.5 µM	54.5 µM	–
CCC(C)CNC(P(=O)(O)O)P(=O)(O)O (centres undefined)	301 µM	447 µM	469 µM	–
O=P(O)(O)C(O)(CCc1cccc(-c2cccc(-c3ccccc3)c2)c1)P(=O)(O)O	44.7 µM	43.9 µM	46.9 µM	–
O=P(O)(O)C(O)(CCc1cccc(-c2ccc(-c3ccccc3)cc2)c1)P(=O)(O)O	175 µM	196 µM	132 µM	–
CC(C)(C)C(=O)OCOP(=O)(OCOC(=O)C(C)(C)C)C(CNc1ccccn1)P(=O)(OCOC(=O)C(C)(C)C)OCOC(=O)C(C)(C)C	7.89 µM	6.44 µM	5.95 µM	–
O=P([O-])(O)C(C[n+]1ccc(-c2ccc(-c3ccccc3)cc2)cc1)P(=O)(O)O (centres undefined)	> 10000 µM	> 10000 µM	> 10000 µM	–
Cc1ccc2c(ccc[n+]2CC(O)(P(=O)([O-])O)P(=O)(O)O)c1 (centres undefined)	261 µM	260 µM	279 µM	–
CC(C)(C)C(=O)OCOP(=O)(OCOC(=O)C(C)(C)C)C(Cc1cccc(-c2cccc(-c3ccccc3)c2)c1)P(=O)(OCOC(=O)C(C)(C)C)OCOC(=O)C(C)(C)C	2.38 µM	2.62 µM	1.64 µM	–
CC(C)(C)C(=O)OCOP(=O)(OCOC(=O)C(C)(C)C)C(Cc1ccc(Br)c(Br)c1)P(=O)(OCOC(=O)C(C)(C)C)OCOC(=O)C(C)(C)C	0.65 µM	0.22 µM	0.62 µM	–
O=P([O-])(O)C(C[n+]1cccc(C(F)(F)F)c1)P(=O)(O)O (centres undefined)	132 µM	129 µM	142 µM	–

Compound	IC50 (SF-268)	IC50 (MCF7)	IC50 (NCI-H460)	IC50 13762
O=P([O-])(O)C(C[n+]1cccc(-c2ccc(-c3ccccc3)cc2)c1)P(=O)(O)O (centres undefined)	23.2 µM	25.1 µM	21.5 µM	–
O=P(O)(O)C(O)(Cc1ccc(-c2cccc(-c3ccccc3)c2)cc1)P(=O)(O)O	620 µM	412 µM	413 µM	–
O=P(O)(O)C(CNCc1cccc(-c2ccccc2)c1)P(=O)(O)O	6.18 µM	46 µM	5.73 µM	–
O=P([O-])(O)C(C[n+]1ccc2ccccc2c1)P(=O)(O)O (centres undefined)	> 10000 µM	> 10000 µM	> 10000 µM	–
O=P([O-])(O)C(O)(C[n+]1cccc(Cc2ccccc2)c1)P(=O)(O)O (centres undefined)	67 µM	69.2 µM	18.5 µM	–
O=P([O-])(O)C(C[n+]1ccc(-c2ccccc2-c2ccccc2)cc1)P(=O)(O)O (centres undefined)	243 µM	280 µM	284 µM	–
O=P([O-])(O)C(C[n+]1cccc(Br)c1)P(=O)(O)O (centres undefined)	109 µM	143 µM	92.9 µM	–
O=P([O-])(O)C(C[n+]1ccccc1)P(=O)(O)O (centres undefined)	65.1 µM	72.3 µM	109 µM	–
O=P([O-])(O)C(O)(C[n+]1ccc(Cc2ccccc2)cc1)P(=O)(O)O (centres undefined)	111 µM	191 µM	211 µM	–
O=P([O-])(O)C(C[n+]1cccc(-c2ccccc2-c2ccccc2)c1)P(=O)(O)O (centres undefined)	232 µM	236 µM	208 µM	–
NCCC(O)(P(=O)(O)O)P(=O)(O)O [PAMIDRONIC ACID]	408 µM	141 µM	71.8 µM	33.6 µM
O=P([O-])(O)C(C[n+]1cccc(-c2ccccc2)c1)P(=O)(O)O (centres undefined)	43.6 µM	34.6 µM	41.3 µM	–
O=P(O)(O)C(O)(Cc1ccc(-c2ccccc2-c2ccccc2)cc1)P(=O)(O)O	475 µM	1060 µM	329 µM	–
O=P([O-])(O)C(C[n+]1cccc(S(=O)(=O)N2CCCC2)c1)P(=O)(O)O (centres undefined)	> 10000 µM	> 10000 µM	> 10000 µM	–
O=P([O-])(O)C(C[n+]1cccc(I)c1)P(=O)(O)O (centres undefined)	89.3 µM	123 µM	53.7 µM	–
O=P(O)(O)C(O)(c1cccc(-c2cccc(-c3ccccc3)c2)c1)P(=O)(O)O	303 µM	310 µM	285 µM	–
CCc1ccc[n+](CC(P(=O)([O-])O)P(=O)(O)O)c1 (centres undefined)	44.8 µM	42.6 µM	62 µM	–
O=P([O-])(O)C(C[n+]1cccc(Cl)c1)P(=O)(O)O (centres undefined)	72.7 µM	132 µM	59 µM	–
CC(C)OC(=O)OCOP(=O)(OCOC(=O)OC(C)C)C(Cc1ccc(Cl)c(Cl)c1)P(=O)(OCOC(=O)OC(C)C)OCOC(=O)OC(C)C	4.78 µM	1.97 µM	4.85 µM	–
O=P(O)(O)C(O)(Cc1cccc(-c2cccc(-c3ccccc3)c2)c1)P(=O)(O)O	130 µM	152 µM	140 µM	–
